In BindingDB's records for patent US11708351 (Achillion Pharmaceuticals, 2023):
pIC50: −log10 of the molar value.

Target: Complement factor D (Homo sapiens, UniProt P00746)
Test: Human Factor D Assay
Method: Human Factor D (purified from human serum, Complement Technology, Inc.) at 80 nM final concentration is incubated with test compound at various concentrations for 5 min at room temperature in 50 mM Tris, 1M NaCl, pH 7.5. A synthetic substrate Z-L-Lys-SBzl and DTNB (Ellman's reagent) are added to final concentrations of 100 μM each. Absorbance at 405 nm (A405) is recorded at 30 second intervals for 30 min using a microplate spectrophotometer. IC50 values are calculated by nonlinear regression of complement Factor D reaction rates as a function of test compound concentration.

Complement factor D, sequence (P00746 whole entry): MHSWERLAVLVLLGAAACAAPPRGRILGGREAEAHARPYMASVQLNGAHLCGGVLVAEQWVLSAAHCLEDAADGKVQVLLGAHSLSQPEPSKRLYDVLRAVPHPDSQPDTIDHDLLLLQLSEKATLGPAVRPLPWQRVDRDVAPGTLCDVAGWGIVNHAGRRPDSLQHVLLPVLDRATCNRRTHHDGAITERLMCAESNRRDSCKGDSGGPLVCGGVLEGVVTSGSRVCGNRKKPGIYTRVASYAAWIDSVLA

Structure (SMILES): CC(=O)c1nn(CC(=O)N2[C@@H](C(=O)Nc3nc(Br)ccc3C)C[C@@]3(C)C[C@@H]23)c2ccc(-c3cnc(C)nc3)cc12 [US11708351, Compound 279]
- pIC50: < 5.00
